Experiments:
[1] = Ratio of hypoglycemic activity in mice was tested on day 7.; format: functional
[2] = test system: Mus musculus; assay: In vivo hypoglycemic activity after administration (40 mg/kg) in mice on day 0 was determined; format: functional
[3] = test system: Mus musculus; assay: In vivo hypoglycemic activity after administration (40 mg/kg) in mice on day 7 was determined; format: functional
[4] = test system: Mus musculus; assay: In vivo hypoglycemic activity after administration (50 mg/kg) in mice on day 0 was determined; format: functional
[5] = test system: Mus musculus; assay: In vivo hypoglycemic activity after administration (50 mg/kg) in mice on day 7 was determined; format: functional
[6] = test system: Mus musculus; assay: In vivo hypoglycemic activity after administration (45 mg/kg) in mice on day 7 was determined; format: functional
[7] = test system: Mus musculus; assay: In vivo hypoglycemic activity after administration (45 mg/kg) in mice on day 0 was determined; format: functional
[8] = test system: Rattus norvegicus; assay: Daily food consumption was determined in rat after oral administration of 500 mg/kg; format: functional
[9] = test system: Mus musculus; assay: Body weight was determined in mouse after oral administration of 20 mg/kg on day 7; format: functional
[10] = test system: Mus musculus; assay: Daily food consumption was determined in mouse after oral administration of 100 mg/kg; format: functional
[11] = test system: Mus musculus; assay: In vivo hypoglycemic activity after administration (42 mg/kg) in mice on day 0 was determined; format: functional
[12] = test system: Rattus norvegicus; assay: Spleen weight was determined in rat after oral administration of 500 mg/kg; format: functional; design: unit not given beside the values
[13] = test system: Mus musculus; assay: Daily water consumption was determined in mouse after oral administration of 5 mg/kg; format: functional
[14] = test system: Mus musculus; assay: Daily water consumption was determined in mouse after oral administration of 20 mg/kg; format: functional
[15] = test system: Mus musculus; assay: Abnormal symptoms was determined in mouse after oral administration of 5 mg/kg; - sign indicates abnormal symptoms in treated mouse; format: functional, organism-based; design: dose 5 mg/kg
[16] = test system: Mus musculus; assay: Daily food consumption was determined in mouse after oral administration of 20 mg/kg; format: functional
[17] = test system: Mus musculus; assay: Abnormal symptoms was determined in mouse after oral administration of 20 mg/kg; - sign indicates abnormal symptoms in treated mouse; format: functional, organism-based; design: dose 20 mg/kg
[18] = test system: Rattus norvegicus; assay: Liver weight was determined in rat after oral administration of 500 mg/kg; format: functional; design: unit not given beside the values
[19] = test system: Mus musculus; assay: In vivo hypoglycemic activity after administration (42 mg/kg) in mice on day 7 was determined; format: functional
[20] = test system: Mus musculus; assay: Body weight was determined in mouse after oral administration of 100 mg/kg on day 7; format: functional
[21] = test system: Mus musculus; assay: Abnormal symptoms was determined in mouse after oral administration of 100 mg/kg; - sign indicates abnormal symptoms in treated mouse; format: functional, organism-based; design: dose 100 mg/kg
[22] = test system: Mus musculus; assay: Daily food consumption was determined in mouse after oral administration of 500 mg/kg; format: functional
[23] = test system: Mus musculus; assay: Body weight was determined in mouse after oral administration of 500 mg/kg on day 0; format: functional
[24] = test system: Rattus norvegicus; assay: Body weight was determined in rat after oral administration of 500 mg/kg on day 0; format: functional
[25] = test system: Rattus norvegicus; assay: Abnormal symptoms was determined in rat after oral administration of 500 mg/kg; - sign indicates abnormal symptoms in treated mouse; format: functional, organism-based; design: dose 500 mg/kg
[26] = test system: Rattus norvegicus; assay: Lung weight was determined in rat after oral administration of 500 mg/kg; format: functional; design: unit not given beside the values
[27] = test system: Mus musculus; assay: Daily water consumption was determined in mouse after oral administration of 100 mg/kg; format: functional
[28] = test system: Mus musculus; assay: Body weight was determined in mouse after oral administration of 5 mg/kg on day 0; format: functional
[29] = test system: Rattus norvegicus; assay: Body weight was determined in rat after oral administration of 500 mg/kg on day 7; format: functional
[30] = test system: Mus musculus; assay: Daily food consumption was determined in mouse after oral administration of 5 mg/kg; format: functional
[31] = test system: Mus musculus; assay: Body weight was determined in mouse after oral administration of 5 mg/kg on day 7; format: functional
[32] = test system: Mus musculus; assay: Daily water consumption was determined in mouse after oral administration of 500 mg/kg; format: functional
[33] = test system: Rattus norvegicus; assay: Daily water consumption was determined in rat after oral administration of 500 mg/kg; format: functional
[34] = test system: Mus musculus; assay: Body weight was determined in mouse after oral administration of 20 mg/kg on day 0; format: functional
[35] = test system: Mus musculus; assay: Abnormal symptoms was determined in mouse after oral administration of 500 mg/kg; - sign indicates abnormal symptoms in treated mouse; format: functional, organism-based; design: dose 500 mg/kg
[36] = test system: Mus musculus; assay: Body weight was determined in mouse after oral administration of 500 mg/kg on day 7; format: functional
[37] = test system: Rattus norvegicus; assay: Kidney weight was determined in rat after oral administration of 500 mg/kg; format: functional
[38] = test system: Mus musculus; assay: Body weight was determined in mouse after oral administration of 100 mg/kg on day 0; format: functional
[39] = test system: Mus musculus; assay: In vivo hypoglycemic activity after administration (43 mg/kg) in mice on day 0 was determined; format: functional
[40] = test system: Mus musculus; assay: In vivo hypoglycemic activity after administration (43 mg/kg) in mice on day 7 was determined; format: functional

For `COc1cc(OC)c2c(=O)cc(-c3ccccc3)oc2c1` [CHRYSIN DIMETHYL ETHER], the Ratio [1] was 89.9, the Blood glucose [2] was 444.4 mg/dL and the Blood glucose [3] was 399.5 mg/dL.

Work on `CC(=O)Oc1ccccc1C(=O)Oc1cc(O)c2c(=O)cc(-c3ccccc3)oc2c1` yielded a Ratio [1] of 102.4, a Blood glucose [2] of 489.3 mg/dL and a Blood glucose [3] of 500.9 mg/dL.

With `CCCCCCCCCCCCOc1cc(O)c2c(=O)cc(-c3ccccc3)oc2c1` the Ratio [1] was 81.9, the Blood glucose [4] was 465.6 mg/dL and the Blood glucose [5] was 381.3 mg/dL.

Work on `O=c1cc(-c2ccccc2)oc2cc(O)cc(O)c12` [CHRYSIN] yielded a Ratio [1] of 104.4, a Blood glucose [6] of 503.5 mg/dL and a Blood glucose [7] of 482.4 mg/dL.

For `COc1cc(O)c2c(=O)cc(-c3ccccc3)oc2c1` [TECHTOCHRYSIN], the Ratio [1] was 87.8, the Blood glucose [4] was 455 mg/dL and the Blood glucose [5] was 399.6 mg/dL.

In the case of `O=C(Oc1cc(O)c2c(=O)cc(-c3ccccc3)oc2c1)c1ccc(F)cc1`, the Ratio [1] is reported as 79.3, the Blood glucose [2] is reported as 458.2 mg/dL and the Blood glucose [3] is reported as 362.5 mg/dL.

With `CCOc1cc(OCC)c2c(=O)cc(-c3ccccc3)oc2c1` the Ratio [1] was 91.7, the Blood glucose [6] was 400.5 mg/dL and the Blood glucose [7] was 436.6 mg/dL.

With `CCCOc1cc(OCCC)c2c(=O)cc(-c3ccccc3)oc2c1` the Food intake [8] was 115.41 g, the Body weight [9] was 31.9 and the Food intake [10] was 49.77 g. For the same molecule, the Blood glucose [11] was 448.3 mg/dL, the Organ weight [12] was 0.61 and the Ratio [1] was 64. The Water consumption [13] was 80 mL, the Water consumption [14] was 80.92 mL and the Activity [15] was “abnormal symptoms in treated mouse”. For the same molecule, the Food intake [16] was 53.2 g, the Activity [17] was “abnormal symptoms in treated mouse” and the Organ weight [18] was 9.64. For the same molecule, the Blood glucose [19] was 287 mg/dL, the Body weight [20] was 32.1 and the Activity [21] was “abnormal symptoms in treated mouse”. It also gave a Food intake [22] of 49.87 g, a Body weight [23] of 22.7 and a Body weight [24] of 235.8. The Activity [25] was “abnormal symptoms in treated mouse”, the Organ weight [26] was 1.23 and the Water consumption [27] was 81.75 mL. The Body weight [28] was 22.3, the Body weight [29] was 300.8 and the Food intake [30] was 48.09 g. It also gave a Body weight [31] of 28.2, a Water consumption [32] of 81.75 mL and a Water consumption [33] of 218.5 mL. The Body weight [34] was 25.3, the Activity [35] was “abnormal symptoms in treated mouse” and the Body weight [36] was 29.5. For the same molecule, the Organ weight [37] was 0.97 and the Body weight [38] was 25.2.

Molecule `CCCCOc1cc(OCCCC)c2c(=O)cc(-c3ccccc3)oc2c1` has a Ratio [1] of 89.3, a Blood glucose [39] of 454.4 mg/dL and a Blood glucose [40] of 405.7 mg/dL.

From ChEMBL document CHEMBL1132521, “Synthesis and hypoglycemic effect of chrysin derivatives” (Bioorg Med Chem Lett, 1999)
